Patent US6737383B1, “Herbicidal oxadiazolidines” (priority 1999, dated 2004)

How the values were obtained:
crabgrass = assay: Test B pre/postemergence crabgrass; format: in vivo, Digitaria sanguinalis
Method in brief: (§1)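 Response is a visual 0-to-10 score relative to untreated plants, where 0 means no effect and 10 means complete control, taken twelve to sixteen days after application. Treatments went onto soil at planting and onto foliage of 1- to 4-leaf plants, using a surfactant-containing non-phytotoxic solvent.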

wild oat = assay: Test B pre/postemergence wild oat; format: in vivo, Avena fatua
Method in brief: as §1

giant foxtail = assay: Test B pre/postemergence giant foxtail; format: in vivo, Setaria faberii
Method in brief: as §1

pigweed = assay: Test B pre/postemergence pigweed; format: in vivo, Amaranthus retroflexus
Method in brief: as §1

blackgrass = assay: Test B pre/postemergence blackgrass; format: in vivo, Alopecurus myosuroides
Source text: Seeds of bedstraw (Galium aparine), blackgrass (Alopecurus myosuroides), surinam grass (Brachiaria decumbens), cocklebur (Xanthium strumarium), corn (Zea mays), crabgrass (Digitaria sanguinalis), giant foxtail (Setaria faberii), morningglory (Ipomoea hederacea), pigweed (Amaranthus retroflexus), rape (Brassica napus), soybean (Glycine max), sugar beet (Beta vulgaris), velvetleaf (Abutilon theophrasti), wheat (Triticum aestivum), wild oat (Avena fatua) and purple nutsedge (Cyperus rotundus) tubers were planted and treated preemnergence with test chemicals formulated in a non-phytotoxic solvent mixture which included a surfactant.
At the same time, these crop and weed species were also treated with postemergence applications of test chemicals formulated in the same manner. Plants ranged in height from 2 to 18 cm (1- to 4-leaf stage) for postemergence treatments. Plant species in the flood test consisted of rice (Oryza sativa), smallflower flatsedge (Cyperus difformis), duck salad (Heteranthera limosa) and bamyardgrass (Echinochloa crus-galli) grown to the 2-leaf stage for testing. Treated plants and controls were maintained in a greenhouse for twelve to sixteen days, after which all species were compared to controls and visually evaluated. Plant response ratings, summarized in Table B, are based on a scale of 0 to 10 where 0 is no effect and 10 is complete control. A dash (−) response means no test result.

surinam grass = assay: Test B pre/postemergence surinam grass; format: in vivo, Brachiaria decumbens
Method in brief: as §1

bedstraw = assay: Test B pre/postemergence bedstraw; format: in vivo, Galium aparine
Method in brief: as §1

soybean = assay: Test B pre/postemergence soybean; format: in vivo, Glycine max
Method in brief: as §1

sugar beet = assay: Test B pre/postemergence sugar beet; format: in vivo, Beta vulgaris
Method in brief: as §1

morningglory = assay: Test B pre/postemergence morningglory; format: in vivo, Ipomoea hederacea
Method in brief: as §1

purple nutsedge = assay: Test B pre/postemergence purple nutsedge; format: in vivo, Cyperus rotundus
Method in brief: as §1

velvetleaf = assay: Test B pre/postemergence velvetleaf; format: in vivo, Abutilon theophrasti
Method in brief: as §1

wheat = assay: Test B pre/postemergence wheat; format: in vivo, Triticum aestivum
Method in brief: as §1

corn = assay: Test B pre/postemergence corn; format: in vivo, Zea mays
Method in brief: as §1

rape = assay: Test B pre/postemergence rape; format: in vivo, Brassica napus
Method in brief: as §1

cocklebur = assay: Test B pre/postemergence cocklebur; format: in vivo, Xanthium strumarium
Method in brief: as §1

[1] = Postemergence, Rate 62 g/ha, scale of 0 to 10, 0 is no effect, 10 is complete control
[2] = Postemergence, Rate 125 g/ha, scale 0 to 10, 0 is no effect, 10 is complete control
[3] = Postemergence, Rate 500 g/ha, scale 0 to 10, 0 is no effect, 10 is complete control
[4] = Preemergence, Rate 62 g/ha, scale of 0 to 10 where 0 is no effect and 10 is complete control
[5] = Preemergence, Rate 125 g/ha, scale 0 to 10, 0 is no effect, 10 is complete control
[6] = Preemergence, Rate 500 g/ha, scale of 0 to 10 where 0 is no effect and 10 is complete control
[7] = Rate 250 g/ha, Postemergence, scale of 0 to 10 where 0 is no effect and 10 is complete control
[8] = Preemergence, Rate 500 g/ha, scale 0 to 10, 0 is no effect, 10 is complete control

In the case of `CCOC(=O)C=C(Cn1c(=O)on(C(=O)N(c2ccc(F)cc2F)C(C)C)c1=O)OCC` [Compound 519], the “Crabgrass plant response rating” value (crabgrass; [1]) is reported as 0, the “Crabgrass plant response rating” value (crabgrass; [2]) is reported as 2 and the “Plant response rating, Crabgrass” value (crabgrass; [3]) is reported as 6. The “Plant response rating, Crabgrass” value (crabgrass; [4]) was 7, the “Crabgrass plant response rating” value (crabgrass; [5]) was 8 and the “Crabgrass plant response rating (0 to 10 scale)” value (crabgrass; Preemergence, Rate 250 g/ha) was 10. The “Crabgrass plant response rating” value (crabgrass; [6]) was 10, the “Plant response rating, Crabgrass” value (crabgrass; [7]) was 6 and the “Wild oats plant response rating” value (wild oat; [1]) was 0. The “Wild oats plant response rating” value (wild oat; [2]) was 0, the “Plant response rating, Wild oats” value (wild oat; [3]) was 0 and the “Plant response rating, Wild oats” value (wild oat; [4]) was 0. For the same molecule, the “Wild oats plant response rating” value (wild oat; [5]) was 0, the “Wild oats plant response rating (0 to 10 scale)” value (wild oat; Preemergence, Rate 250 g/ha) was 0 and the “Wild oats plant response rating” value (wild oat; [6]) was 0. For the same molecule, the “Plant response rating, Wild oats” value (wild oat; [7]) was 0, the “Giant foxtail plant response rating” value (giant foxtail; [1]) was 4 and the “Giant foxtail plant response rating” value (giant foxtail; [2]) was 4. The “Plant response rating, Giant foxtail” value (giant foxtail; [3]) was 6, the “Plant response rating, Giant foxtail” value (giant foxtail; [4]) was 10 and the “Giant foxtail plant response rating” value (giant foxtail; [5]) was 10. For the same molecule, the “Giant foxtail plant response rating (0 to 10 scale)” value (giant foxtail; Preemergence, Rate 250 g/ha) was 10, the “Giant foxtail plant response rating” value (giant foxtail; [6]) was 10 and the “Plant response rating, Giant foxtail” value (giant foxtail; [7]) was 4. The “Redroot pigweed plant response rating” value (pigweed; [1]) was 0, the “Redroot pigweed plant response rating” value (pigweed; [2]) was 0 and the “Plant response rating, Redroot pigweed” value (pigweed; [3]) was 0. For the same molecule, the “Plant response rating, Redroot pigweed” value (pigweed; [4]) was 0, the “Redroot pigweed plant response rating” value (pigweed; [5]) was 0 and the “Redroot pigweed plant response rating (0 to 10 scale)” value (pigweed; Preemergence, Rate 250 g/ha) was 0. The “Redroot pigweed plant response rating” value (pigweed; [6]) was 0, the “Plant response rating, Redroot pigweed” value (pigweed; [7]) was 0 and the “Blackgrass plant response rating” value (blackgrass; [1]) was 0. For the same molecule, the “Blackgrass plant response rating” value (blackgrass; [2]) was 0, the “Plant response rating, Blackgrass” value (blackgrass; [3]) was 0 and the “Plant response rating, Blackgrass” value (blackgrass; [4]) was 0. For the same molecule, the “Blackgrass plant response rating” value (blackgrass; [5]) was 0, the “Blackgrass plant response rating (0 to 10 scale)” value (blackgrass; Preemergence, Rate 250 g/ha) was 4 and the “Blackgrass plant response rating” value (blackgrass; [6]) was 4. The “Plant response rating, Blackgrass” value (blackgrass; [7]) was 0, the “B. signalgrass plant response rating” value (surinam grass; [1]) was 0 and the “B. signalgrass plant response rating” value (surinam grass; [2]) was 0. The “Plant response rating, B. signalgrass” value (surinam grass; [3]) was 0, the “Plant response rating, B. signalgrass” value (surinam grass; [4]) was 0 and the “B. signalgrass plant response rating” value (surinam grass; [5]) was 0. The “B. signalgrass plant response rating (0 to 10 scale, 0 is no effect, 10 is complete control)” value (surinam grass; Preemergence, Rate 250 g/ha) was 0, the “B. signalgrass plant response rating” value (surinam grass; [8]) was 0 and the “Plant response rating, B. signalgrass” value (surinam grass; [7]) was 0. For the same molecule, the “Bedstraw plant response rating” value (bedstraw; [1]) was 0, the “Plant response rating, Bedstraw” value (bedstraw; [3]) was 0 and the “Plant response rating, Bedstraw” value (bedstraw; [4]) was 0. For the same molecule, the “Bedstraw plant response rating” value (bedstraw; [5]) was 0, the “Bedstraw plant response rating (0 to 10 scale)” value (bedstraw; Preemergence, Rate 250 g/ha) was 0 and the “Bedstraw plant response rating” value (bedstraw; [8]) was 0. The “Plant response rating, Bedstraw” value (bedstraw; [7]) was 0, the “Soybean plant response rating” value (soybean; [1]) was 3 and the “Soybean plant response rating” value (soybean; [2]) was 3. For the same molecule, the “Plant response rating, Soybean” value (soybean; [3]) was 4, the “Plant response rating, Soybean” value (soybean; [4]) was 0 and the “Soybean plant response rating” value (soybean; [5]) was 0. For the same molecule, the “Soybean plant response rating (0 to 10 scale)” value (soybean; Preemergence, Rate 250 g/ha) was 0, the “Soybean plant response rating” value (soybean; [6]) was 0 and the “Plant response rating, Soybean” value (soybean; [7]) was 4. The “Sugarbeets plant response rating” value (sugar beet; [1]) was 0, the “Sugarbeets plant response rating” value (sugar beet; [2]) was 0 and the “Plant response rating, Sugarbeets” value (sugar beet; [3]) was 0. For the same molecule, the “Plant response rating, Sugarbeets” value (sugar beet; [4]) was 0, the “Sugarbeets plant response rating” value (sugar beet; [5]) was 0 and the “Sugarbeets plant response rating (0 to 10 scale)” value (sugar beet; Preemergence, Rate 250 g/ha) was 0. For the same molecule, the “Sugarbeets plant response rating” value (sugar beet; [6]) was 0, the “Plant response rating, Sugarbeets” value (sugar beet; [7]) was 0 and the “Morningglory plant response rating” value (morningglory; [1]) was 0. For the same molecule, the “Morningglory plant response rating” value (morningglory; [2]) was 0, the “Plant response rating, Morningglory” value (morningglory; [3]) was 0 and the “Plant response rating, Morningglory” value (morningglory; [4]) was 0. The “Morningglory plant response rating” value (morningglory; [5]) was 0, the “Morningglory plant response rating (0 to 10 scale)” value (morningglory; Preemergence, Rate 250 g/ha) was 0 and the “Morningglory plant response rating” value (morningglory; [6]) was 0. For the same molecule, the “Plant response rating, Morningglory” value (morningglory; [7]) was 0, the “Nutsedge plant response rating” value (purple nutsedge; [2]) was 0 and the “Plant response rating, Nutsedge” value (purple nutsedge; [3]) was 0. The “Plant response rating, Nutsedge” value (purple nutsedge; [4]) was 0, the “Nutsedge plant response rating” value (purple nutsedge; [5]) was 0 and the “Nutsedge plant response rating” value (purple nutsedge; [6]) was 0. The “Velvetleaf plant response rating” value (velvetleaf; [1]) was 2, the “Velvetleaf plant response rating” value (velvetleaf; [2]) was 2 and the “Plant response rating, Velvetleaf” value (velvetleaf; [3]) was 4. For the same molecule, the “Plant response rating, Velvetleaf” value (velvetleaf; [4]) was 0, the “Velvetleaf plant response rating” value (velvetleaf; [5]) was 0 and the “Velvetleaf plant response rating (0 to 10 scale)” value (velvetleaf; Preemergence, Rate 250 g/ha) was 0. For the same molecule, the “Velvetleaf plant response rating” value (velvetleaf; [6]) was 0, the “Plant response rating, Velvetleaf” value (velvetleaf; [7]) was 4 and the “Wheat plant response rating” value (wheat; [1]) was 0. For the same molecule, the “Wheat plant response rating” value (wheat; [2]) was 0, the “Plant response rating, Wheat” value (wheat; [3]) was 0 and the “Plant response rating, Wheat” value (wheat; [4]) was 0. For the same molecule, the “Wheat plant response rating” value (wheat; [5]) was 0, the “Wheat plant response rating (0 to 10 scale)” value (wheat; Preemergence, Rate 250 g/ha) was 0 and the “Wheat plant response rating” value (wheat; [6]) was 0. The “Plant response rating, Wheat” value (wheat; [7]) was 0, the “Corn plant response rating” value (corn; [1]) was 0 and the “Corn plant response rating” value (corn; [2]) was 0. The “Plant response rating, Corn” value (corn; [3]) was 0, the “Plant response rating, Corn” value (corn; [4]) was 0 and the “Corn plant response rating” value (corn; [5]) was 0. The “Corn plant response rating (0 to 10 scale)” value (corn; Preemergence, Rate 250 g/ha) was 0, the “Corn plant response rating” value (corn; [6]) was 0 and the “Plant response rating, Corn” value (corn; [7]) was 0. The “Rape plant response rating” value (rape; [1]) was 0, the “Rape plant response rating” value (rape; [2]) was 0 and the “Plant response rating, Rape” value (rape; [3]) was 0. The “Plant response rating, Rape” value (rape; [4]) was 0, the “Rape plant response rating” value (rape; [5]) was 0 and the “Rape plant response rating (0 to 10 scale)” value (rape; Preemergence, Rate 250 g/ha) was 0. For the same molecule, the “Rape plant response rating” value (rape; [6]) was 0, the “Plant response rating, Rape” value (rape; [7]) was 0 and the “Cocklebur plant response rating” value (cocklebur; [1]) was 0. For the same molecule, the “Cocklebur plant response rating” value (cocklebur; [2]) was 0, the “Plant response rating, Cocklebur” value (cocklebur; [3]) was 0 and the “Plant response rating, Cocklebur” value (cocklebur; [4]) was 0. The “Cocklebur plant response rating” value (cocklebur; [5]) was 0, the “Cocklebur plant response rating (0 to 10 scale)” value (cocklebur; Preemergence, Rate 250 g/ha) was 0 and the “Cocklebur plant response rating” value (cocklebur; [6]) was 0. For the same molecule, the “Plant response rating, Cocklebur” value (cocklebur; [7]) was 0.
